ChEMBL document CHEMBL4420081, “Novel benzylamino substituted quinazolines and derivatives as sos1 inhibitors” (2018)

Experiments:
Type in all cases: functional
Conditions in all cases: PC-9, 336 h, read-out: GI
PC-9 [1] = experiment: Growth inhibition of human PC9 cells grown under 3D anchorage-independent soft-agar conditions at 10 nM incubated for 14 days by alamar blue dye based assay relative to control
PC-9 [2] = experiment: Growth inhibition of human PC9 cells grown under 3D anchorage-independent soft-agar conditions at 3.33 nM incubated for 14 days by alamar blue dye based assay relative to control
PC-9 [3] = experiment: Growth inhibition of human PC9 cells grown under 3D anchorage-independent soft-agar conditions at 1.11 nM incubated for 14 days by alamar blue dye based assay relative to control
PC-9 [4] = experiment: Growth inhibition of human PC9 cells grown under 3D anchorage-independent soft-agar conditions at 0.37 nM incubated for 14 days by alamar blue dye based assay relative to control
PC-9 [5] = experiment: Growth inhibition of human PC9 cells grown under 3D anchorage-independent soft-agar conditions at 0.123 nM incubated for 14 days by alamar blue dye based assay relative to control

Structure (SMILES): C=CC(=O)Nc1cccc(Oc2nc(Nc3ccc(N4CCN(C)CC4)cc3)nc3ccsc23)c1 [OLMUTINIB]
- inhibition of growth at 0.01 µM (PC-9 [1]): 69%
- inhibition of growth at 0.00333 µM (PC-9 [2]): 35%
- inhibition of growth at 0.00111 µM (PC-9 [3]): 1%
- inhibition of growth at 0.00037 µM (PC-9 [4]): -3%
- inhibition of growth at 0.000123 µM (PC-9 [5]): -3%
